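Assay format: 96-well plates, 48-hour exposure. GI50: concentration for 50% inhibition of growth. TGI: total growth inhibition.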
How the values were obtained:
Assay in all cases: NCI-60 cell line screen, 48 h
[1] = system: HCC-2998 colon
[2] = system: SF-295 CNS
[3] = system: SN12C renal
[4] = system: U251 CNS
[5] = system: UO-31 renal
[6] = system: HOP-62 NSCLC
[7] = system: NCI-H23 lung
[8] = system: OVCAR-3 ovarian
[9] = system: MDA-MB-231 breast
[10] = system: MCF7 breast

SMILES	TGI [1]	TGI [2]	TGI [3]	TGI [4]	TGI [5]	TGI [6]	TGI [7]	TGI [8]	GI50 [1]	GI50 [2]	GI50 [3]	GI50 [4]	GI50 [5]	GI50 [6]	GI50 [7]	GI50 [8]	GI50 [9]	TGI [9]	GI50 [10]	TGI [10]
COc1ccc(-c2cc(=O)c3ccccc3o2)cc1N	> 100 µM	> 100 µM	> 100 µM	> 100 µM	> 100 µM	> 100 µM	> 100 µM	> 100 µM	–	–	–	–	–	–	–	–	–	–	–	–
CC(C)[O-].CC(C)[O-].O=C1C=C([O-])C(=O)c2ccccc21.O=C1C=C([O-])C(=O)c2ccccc21.[Ti+4]	> 100 µM	> 100 µM	> 100 µM	> 100 µM	> 100 µM	> 100 µM	> 79.3 µM	> 100 µM	> 91.7 µM	28.1 µM	> 100 µM	> 68.8 µM	> 100 µM	> 100 µM	3.94 µM	> 70.5 µM	–	–	–	–
O=C(CCc1nnc2s/c(=C\c3ccc(Cl)c(Cl)c3)c(=O)n12)Nc1ccc(Cl)c(Cl)c1	> 100 µM	> 100 µM	> 100 µM	> 100 µM	> 100 µM	> 100 µM	> 100 µM	> 100 µM	–	–	–	–	–	–	–	–	–	–	–	–
COC(=O)CC[C@]1(C)O[C@H]2[C@H]([C@@H](C)CCCC(C)=O)OC(=O)[C@@H]2C[C@H]1O	> 100 µM	> 100 µM	> 100 µM	> 100 µM	> 100 µM	–	> 100 µM	> 100 µM	29.1 µM	> 100 µM	> 100 µM	> 100 µM	> 100 µM	–	67.8 µM	31.5 µM	> 100 µM	> 100 µM	> 100 µM	> 100 µM
O=C(Nc1ccc(Cl)cc1Cl)C1C(=O)C(=O)N(c2ccc(Cl)cc2Cl)C1=O (centres undefined)	> 100 µM	–	> 100 µM	> 100 µM	> 100 µM	> 100 µM	> 100 µM	> 100 µM	–	–	–	–	–	–	–	–	–	–	–	–
COc1ccc2c3c([nH]c2c1[N+](=O)[O-])C(C)N(Cc1ccc([N+](=O)[O-])cc1)CC3 (centres undefined)	37.3 µM	43 µM	60.7 µM	46.9 µM	> 100 µM	–	44.5 µM	64.7 µM	–	–	–	–	–	–	–	–	–	–	–	–
C=C1C(C2(C)C(OC(C)=O)CC(=O)OC(C)(COC(C)=O)C2CC(=O)OC)C(OC=O)C(OC(=O)C(O)C(C)CC)C2(C)C(c3ccoc3)CC(=O)C12O (centres undefined)	–	> 100 µM	> 100 µM	> 100 µM	18.1 µM	> 100 µM	> 100 µM	> 100 µM	–	–	–	–	–	–	–	–	–	> 100 µM	–	> 100 µM
COc1cc(OC)c(SSCCCCS(=O)O)c(OC)c1	42.4 µM	26.8 µM	33.6 µM	27.9 µM	40.6 µM	67 µM	30.5 µM	28.6 µM	–	–	–	–	–	–	–	–	–	–	–	–
CCOc1ccc(N=Cc2ccc3cc(C)ccc3n2)cc1	> 100 µM	> 100 µM	> 100 µM	> 100 µM	> 100 µM	> 100 µM	> 100 µM	> 100 µM	–	–	–	–	–	–	–	–	–	–	–	–
C/C=C1\C=C(OC)CN(CCc2c[nH]c3ccccc23)C1	33.1 µM	> 100 µM	> 100 µM	–	> 100 µM	> 100 µM	> 100 µM	> 100 µM	–	–	–	–	–	–	–	–	–	–	–	–
CCN(CC)CCCNC(=O)C1COc2cc(-c3cc(=O)c4ccccc4o3)ccc2O1 (centres undefined)	> 100 µM	> 100 µM	> 100 µM	> 100 µM	> 100 µM	> 100 µM	> 100 µM	> 100 µM	–	–	–	–	–	–	–	–	–	–	–	–
Cc1ccccc1NC(=O)c1c(C)oc2c1C(=O)c1ccccc1C2=O	> 100 µM	> 100 µM	> 100 µM	> 20.2 µM	> 100 µM	> 100 µM	93.5 µM	> 72.1 µM	–	–	–	–	–	–	–	–	–	–	–	–
Nc1c2c(c(O)c3c1=C(CO)C=N3)=NCCS2	0.329 µM	0.33 µM	0.332 µM	0.329 µM	0.345 µM	0.317 µM	0.352 µM	0.35 µM	0.169 µM	0.177 µM	0.167 µM	0.18 µM	0.161 µM	0.175 µM	0.0971 µM	0.164 µM	0.296 µM	0.834 µM	–	–
Cc1ccc(NC2=C(Cl)C(=O)N(Cc3ccc(Cl)cc3)C2=O)cc1O	–	19.8 µM	30.5 µM	> 100 µM	69 µM	26.4 µM	23.7 µM	38.5 µM	–	4.04 µM	13.3 µM	4.88 µM	17.6 µM	9.99 µM	5.56 µM	8.88 µM	9.75 µM	32.4 µM	6.73 µM	27.5 µM
Cn1nc(-c2ccccc2)c(C(=O)/C=C/c2ccc(Cl)cc2)c(N2CCCCC2)c1=O	–	2.14 µM	20.5 µM	3.82 µM	3.03 µM	5.68 µM	5.48 µM	–	–	–	–	–	–	–	–	–	–	–	–	–
CCOC(=O)N1c2c(ccn2C)-c2ccn(C)c2N1C(=O)OCC	37.9 µM	29.7 µM	29.6 µM	–	35.4 µM	> 100 µM	–	27.1 µM	–	–	–	–	–	–	–	–	–	–	–	–
O=C1c2ccccc2-c2oc(=O)c3ccccc3c21	–	> 100 µM	> 100 µM	> 100 µM	> 100 µM	> 100 µM	> 100 µM	> 100 µM	–	–	–	–	–	–	–	–	–	> 100 µM	–	> 100 µM
O=C1O[C@H](c2ccccc2)[C@@H]2CC3(CCN12)OCCO3	–	> 100 µM	> 100 µM	> 100 µM	> 100 µM	> 100 µM	> 100 µM	> 100 µM	–	–	–	–	–	–	–	–	–	–	–	–
CC(=O)OC[C@]1(C)CCCC2(C)C1CCC1C=C(C)[C@H]3CCC12C3 (some centres undefined)	> 100 µM	> 100 µM	> 100 µM	> 100 µM	> 100 µM	> 100 µM	> 100 µM	> 100 µM	–	–	–	–	–	–	–	–	–	–	–	–
CC(C)(C)CC(C)(C)c1cc2c(O)c(c1)Cc1cc(C(C)(C)CC(C)(C)C)cc(c1O)Cc1cc(C(C)(C)CC(C)(C)C)cc(c1O)Cc1cc(C(C)(C)CC(C)(C)C)cc(c1O)Cc1cc(C(C)(C)CC(C)(C)C)cc(c1O)C2	> 100 µM	> 100 µM	> 100 µM	> 100 µM	> 100 µM	> 100 µM	> 100 µM	> 100 µM	–	–	–	–	–	–	–	–	–	–	–	–
O=C(O)Cc1cc(=O)[nH]c2c1/C(=N/O)CCC2	> 100 µM	> 100 µM	> 100 µM	> 100 µM	> 100 µM	–	> 100 µM	> 100 µM	–	–	–	–	–	–	–	–	–	–	–	–
